Experimental data from ChEMBL document CHEMBL1123633, “Cardiotonic agents. 8. Selective inhibitors of adenosine 3',5'-cyclic phosphate phosphodiesterase III. Elaboration of a five-point model for positive inotropic activity” (J Med Chem, 1987).

Assays:
[1] = target: T1, cGMP-dependent 3',5'-cyclic phosphodiesterase (Homo sapiens, UniProt O00408); assay: Inhibition of cAMP PDE II enzyme; parameters: species or system Cavia porcellus
Canis familiaris = assay: 50% increase in myocardial contractility (dP/dt max) in anesthetized dogs on intravenous dose; assay type: functional; settings: Canis lupus familiaris, Myocardium
[2] = target: T1, cGMP-dependent 3',5'-cyclic phosphodiesterase; assay: Inhibition of cGMP PDE II enzyme; parameters: species or system Cavia porcellus
Phosphodiesterase 1 [3] = target: T2, Phosphodiesterase 1 (Homo sapiens, UniProt P54750+Q01064+Q14123); assay: Inhibition of cAMP PDE I enzyme; assay type: protein assay, Cavia porcellus
Phosphodiesterase 1 [4] = target: T2, Phosphodiesterase 1; assay: Inhibition cGMP PDE I enzyme; assay type: protein assay, Cavia porcellus
Phosphodiesterase 3 = Phosphodiesterase 3 (Homo sapiens, UniProt Q14432+Q13370); assay: Inhibition of cAMP PDE III enzyme; assay type: protein assay, Cavia porcellus

T1 sequence (O00408 whole entry): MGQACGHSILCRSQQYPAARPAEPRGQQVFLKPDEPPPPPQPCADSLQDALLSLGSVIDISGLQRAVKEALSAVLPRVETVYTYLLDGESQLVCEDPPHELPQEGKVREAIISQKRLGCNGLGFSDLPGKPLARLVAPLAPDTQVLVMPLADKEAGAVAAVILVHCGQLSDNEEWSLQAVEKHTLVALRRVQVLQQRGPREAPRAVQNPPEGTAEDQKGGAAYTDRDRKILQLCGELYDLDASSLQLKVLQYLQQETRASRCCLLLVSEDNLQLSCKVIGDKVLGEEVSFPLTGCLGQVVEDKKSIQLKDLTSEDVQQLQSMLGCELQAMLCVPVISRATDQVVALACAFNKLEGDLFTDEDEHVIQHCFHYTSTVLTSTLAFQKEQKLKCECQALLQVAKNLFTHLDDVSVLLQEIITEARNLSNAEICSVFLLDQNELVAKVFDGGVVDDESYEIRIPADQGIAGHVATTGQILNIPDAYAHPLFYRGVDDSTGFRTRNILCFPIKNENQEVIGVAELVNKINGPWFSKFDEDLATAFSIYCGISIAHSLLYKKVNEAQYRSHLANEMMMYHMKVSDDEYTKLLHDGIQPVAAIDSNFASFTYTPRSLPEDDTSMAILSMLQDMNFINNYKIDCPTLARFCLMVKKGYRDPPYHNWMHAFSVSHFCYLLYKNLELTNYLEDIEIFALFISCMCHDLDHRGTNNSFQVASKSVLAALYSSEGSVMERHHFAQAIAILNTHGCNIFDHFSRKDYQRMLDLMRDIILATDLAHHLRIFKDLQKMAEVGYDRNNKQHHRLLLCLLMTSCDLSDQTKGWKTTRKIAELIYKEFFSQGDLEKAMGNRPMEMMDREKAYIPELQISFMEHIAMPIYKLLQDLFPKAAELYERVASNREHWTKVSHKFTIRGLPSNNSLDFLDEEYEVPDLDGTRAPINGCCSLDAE

SMILES	IC50 (Phosphodiesterase 1 [4]) [µM]	ED50 (Canis familiaris) [mg/kg]	also measured
O=C1CC2Cc3cc(-n4cnc5c4CCCC5)ccc3C2=NN1 (stereo unspecified)		0.05	IC50 (Phosphodiesterase 3): 1.2 µM
CCc1[nH]c(=O)[nH]c1C(=O)c1ccncc1 [PIROXIMONE]		0.1	
Cc1[nH]c(=O)c(C#N)cc1-c1ccncc1 [MILRINONE]		0.04	
CC1CC(=O)NN=C1c1ccc2c(c1)CCC(=O)N2C (stereo unspecified)			IC50 (Phosphodiesterase 3): 0.12 µM
CSc1ccc(C(=O)c2[nH]c(=O)[nH]c2C)cc1 [ENOXIMONE]		0.28	
O=C1CC2Cc3cc(-n4ccnc4)ccc3C2=NN1 (stereo unspecified)		0.023	

Further lines, with some results ahead:

IC50 (Phosphodiesterase 1 [4]) [µM]	SMILES	ED50 (Canis familiaris) [mg/kg]	also measured
130	CC1=C(c2ccc(-n3ccnc3)cc2)CC(C#N)C(=O)N1 (stereo unspecified)	0.01	IC50 [1]: 43 µM; IC50 [2]: 120 µM; IC50 (Phosphodiesterase 1 [3]): 39 µM
> 1000	O=C1CCC(c2cccc(-n3ccnc3)c2)=NN1		
> 1000	Nc1cc(-c2ccncc2)c[nH]c1=O [INAMRINONE]	0.39	IC50 (Phosphodiesterase 1 [3]): > 1000 µM
